pIC50: −log10 of the molar value.
What was measured:
hα2A receptor = molecular target: T1, hα2A receptor (Homo sapiens, UniProt P08913); experiment: Radioligand binding experiment for α2A-adrenergic receptor ([3H]-raulwolscine); settings: CHO cell membranes with human α2A receptor, [3H]raulwolscine 1 nM; read-out: pIC50 α2A (converted)
T1 construct: expressed in transfected cells; host or cells: CHO cells
T1 sequence (P08913 1-465): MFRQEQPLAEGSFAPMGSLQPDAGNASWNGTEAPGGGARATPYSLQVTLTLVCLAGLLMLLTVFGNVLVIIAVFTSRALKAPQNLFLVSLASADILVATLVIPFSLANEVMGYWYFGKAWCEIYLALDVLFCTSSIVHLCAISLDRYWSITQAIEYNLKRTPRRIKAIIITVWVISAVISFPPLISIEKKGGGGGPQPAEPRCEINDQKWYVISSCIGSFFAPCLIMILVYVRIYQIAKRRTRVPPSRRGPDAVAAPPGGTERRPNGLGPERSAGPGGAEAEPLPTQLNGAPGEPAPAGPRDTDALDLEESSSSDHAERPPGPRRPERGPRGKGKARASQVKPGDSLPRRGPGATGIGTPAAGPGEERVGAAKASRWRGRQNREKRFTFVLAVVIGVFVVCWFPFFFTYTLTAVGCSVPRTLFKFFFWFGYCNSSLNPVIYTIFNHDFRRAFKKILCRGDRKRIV
Method: (§1) The interaction of the compounds of Formula (I) with hα2-receptors and h5-HT-transporters was assessed in in vitro radioligand binding experiments. In general, a low concentration of a radioligand with a high binding affinity for a particular receptor or transporter is incubated with a sample of a tissue preparation enriched in a particular receptor or transporter or with a preparation of cells expressing cloned human receptors in a buffered medium. During the incubation, the radioligand binds to the receptor or transporter. When equilibrium of binding is reached, the receptor bound radioactivity is separated from the non-bound radioactivity, and the receptor- or transporter-bound activity is counted. The interaction of the test compounds with the receptor is assessed in competition binding experiments. Various concentrations of the test compound are added to the incubation mixture containing the receptor- or transporter preparation and the radioligand. The test compound in proportion to its binding affinity and its concentration inhibits binding of the radioligand. The radioligand used for hα2A, hα2B and hα2C receptor binding was [^3H]-raulwolscine and for the h5-HT transporter was [^3H]paroxetine.
(§2) CHO cells, stabile transfected with human adrenergic-α2A-, -α2B or α2C receptor cDNA, were cultured in Dulbecco's Modified Eagle's Medium (DMEM)/Nutrient mixture Ham's F12 (ratio 1:1)(Gibco, Gent-Belgium) supplemented with 10% heat inactivated fetal calf serum (Life Technologies, Merelbeke-Belgium) and antibiotics (100 IU/ml penicillin G, 100 μg/ml streptomycin sulphate, 110 μg/ml pyruvic acid and 100 μg/ml L-glutamine). One day before collection, cells were induced with 5 mM sodiumbutyrate. Upon 80-90% of confluence, cells were scraped in phosphate buffered saline without Ca^2+ and Mg^2+ and collected by centrifugation at 1500×g for 10 min. The cells were homogenised in Tris-HCl 50 mM using an Ultraturrax homogenizer and centrifuged for 10 min at 23,500×g. The pellet was washed once by resuspension and rehomogenization and the final pellet was resuspended in Tris-HCl, divided in 1 ml aliquots and stored at −70° C.
(§3) Membranes were thawed and re-homogenized in incubation buffer (glycylglycine 25 mM, pH 8.0). In a total volume of 500 μl, 2-10 μg protein was incubated with [^3H]raulwolscine (NET-722) (New England Nuclear, USA) (1 nM final concentration) with or without competitor for 60 min at 25° C. followed by rapid filtration over GF/B filter using a Filtermatel 96 harvester (Packard, Meriden, Conn.). Filters were rinsed extensively with ice-cold rinsing buffer (Tris-HCl 50 mM pH 7.4). Filter-bound radioactivity was determined by scintillation counting in a Topcount (Packard, Meriden, Conn.) and results were expressed as counts per minute (cpm). Non-specific binding was determined in the presence of 1 μM oxymetazoline for hα2A- and hα2B receptors and 1 μM spiroxatrine for hα2C receptors.
(§4) Data from assays in the presence of compound were calculated as a percentage of total binding measured in the absence of test compound. Inhibition curves, plotting percent of total binding versus the log value of the concentration of the test compound, were automatically generated, and sigmoidal inhibition curves were fitted using non-linear regression. The pIC50 values of test compounds were derived from individual curves.

hα2C receptor = molecular target: T2, hα2C receptor (Homo sapiens, UniProt P18825); experiment: Radioligand binding experiment for α2C-adrenergic receptor ([3H]-raulwolscine); settings: CHO cell membranes with human α2C receptor, [3H]raulwolscine 1 nM; read-out: pIC50 α2C (converted)
T2 construct: expressed in transfected cells; host or cells: CHO cells
T2 sequence (P18825 1-462): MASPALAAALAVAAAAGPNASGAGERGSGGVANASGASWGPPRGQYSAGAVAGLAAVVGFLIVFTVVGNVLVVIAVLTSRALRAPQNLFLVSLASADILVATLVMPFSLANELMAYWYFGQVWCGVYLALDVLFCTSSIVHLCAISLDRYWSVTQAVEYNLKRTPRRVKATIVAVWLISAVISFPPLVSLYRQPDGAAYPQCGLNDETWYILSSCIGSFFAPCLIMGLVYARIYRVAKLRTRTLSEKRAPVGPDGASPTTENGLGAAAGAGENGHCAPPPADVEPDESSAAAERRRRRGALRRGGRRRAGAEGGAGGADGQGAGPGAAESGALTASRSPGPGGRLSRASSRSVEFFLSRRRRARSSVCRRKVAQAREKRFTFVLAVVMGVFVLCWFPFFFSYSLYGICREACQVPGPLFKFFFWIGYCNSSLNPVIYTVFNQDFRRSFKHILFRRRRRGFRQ
Method: as §1, §2, §3, §4

h5-HT transporter = molecular target: T3, h5-HT transporter (Homo sapiens, UniProt P31645); experiment: Radioligand binding experiment for 5-HT transporter ([3H]paroxetine); settings: human platelet membranes, [3H]paroxetine 0.5 nM
T3 construct: Human platelet membranes (Oceanix Biosciences Corporation, Hanover, Md., USA) were thawed; tissue Oceanix Biosciences Corporation; host or cells: human platelet membranes
Method: as §1
Human platelet membranes (Oceanix Biosciences Corporation, Hanover, Md., USA) were thawed, diluted in buffer (Tris-HCl 50 mM, 120 mM NaCl and 5 mM KCl) and quickly (max 3 s) homogenised with an Ultraturrax homogenizer. In a total volume of 250 μL, 50-100 μg protein was incubated with [^3H]paroxetine (NET-869) (New England Nuclear, USA) (0.5 nM final concentration) with or without competitor for 60 min at 25° C. Incubation was stopped by rapid filtration of the incubation mixture over GF/B filters, pre-wetted with 0.1% polyethyleneamine, using a Filtermatel 96 harvester (Packard, Meriden, Conn.). Filters were rinsed extensively with ice-cold buffer and radioactivity on the filters was counted in a Topcount liquid scintillation counter (Packard, Meriden, Conn.). Data were expressed as cpm. Imipramine (at 1 μM final concentration) was used to determine the non-specific binding.
as §4

T3 sequence (P31645 whole entry): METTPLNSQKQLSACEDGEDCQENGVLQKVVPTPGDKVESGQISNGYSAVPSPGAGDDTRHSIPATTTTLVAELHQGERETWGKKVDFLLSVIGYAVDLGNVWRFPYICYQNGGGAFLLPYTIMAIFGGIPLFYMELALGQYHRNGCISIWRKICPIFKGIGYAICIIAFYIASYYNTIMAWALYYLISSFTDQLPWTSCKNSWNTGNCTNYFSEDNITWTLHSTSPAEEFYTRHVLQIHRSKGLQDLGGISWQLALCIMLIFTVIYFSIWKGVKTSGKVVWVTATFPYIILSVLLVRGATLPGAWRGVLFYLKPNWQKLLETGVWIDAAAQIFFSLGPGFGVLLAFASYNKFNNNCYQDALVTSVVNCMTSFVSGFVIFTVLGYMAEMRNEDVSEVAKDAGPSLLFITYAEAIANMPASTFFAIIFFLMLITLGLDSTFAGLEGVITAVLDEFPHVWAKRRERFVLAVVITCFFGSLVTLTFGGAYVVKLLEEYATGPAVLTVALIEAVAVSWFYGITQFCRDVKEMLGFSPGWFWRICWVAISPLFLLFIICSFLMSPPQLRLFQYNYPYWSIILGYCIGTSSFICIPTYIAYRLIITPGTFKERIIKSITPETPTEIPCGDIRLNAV

SMILES	IC50 (hα2A receptor)	IC50 (hα2C receptor)	pIC50 (h5-HT transporter)
CC(=Cc1ccccc1)CN1CCN(CC2ON=C3c4ccc(N(C)CCO)cc4OCC32)CC1 (single isomer, unassigned) [Compound 33]	631 nM	39.8 nM	7.90
C/C(=C\c1ccccc1)CN1CCN(CC2ON=C3c4ccc(N(C)CCN(C)C)cc4OCC32)CC1 (stereo not drawn) [Compound 1]	1.26 nM	1 nM	8.20
COc1cc2c(cc1N)OCC1C2=NOC1CN1CCN(C/C(C)=C/c2ccccc2)CC1 (stereo not drawn) [Compound 8]	5.01 nM	1.58 nM	7.60
COc1cc2c(cc1NC(C)=O)OCC1C2=NOC1CN1CCN(C/C(C)=C/c2ccccc2)CC1 (stereo not drawn) [Compound 10]	3.98 nM	1.26 nM	7.20
CC(=O)N1CCOc2cc3c(cc21)OCC1C3=NOC1CN1CCN(C/C(C)=C/c2ccccc2)CC1 (stereo not drawn) [Compound 12]	2 nM	1 nM	7.50
CCNC(=O)N1CCOc2cc3c(cc21)OCC1C3=NOC1CN1CCN(C/C(C)=C/c2ccccc2)CC1 (stereo not drawn) [Compound 16]	7.94 nM	0.794 nM	8.10
CNCCNc1ccc2c(c1)OCC1C2=NOC1CN1CCN(CC(C)=Cc2ccc(F)cc2)CC1 (stereo not drawn) [Compound 20]	31.6 nM	3.16 nM	8.10
CC(=Cc1cccc(F)c1)CN1CCN(CC2ON=C3c4ccc(N(C)CCN(C)C)cc4OCC32)CC1 (stereo not drawn) [Compound 22]	1.58 nM	1.26 nM	8.80
CC(=Cc1ccc(F)cc1)CN1CCN(CC2ON=C3c4ccc(N(C)CCN(C)C)cc4OCC32)CC1 (stereo not drawn) [Compound 23]	10 nM	2 nM	8.30
CCN(CC)CCN(C)c1ccc2c(c1)OCC1C2=NOC1CN1CCN(CC(C)=Cc2ccc(F)cc2)CC1 (stereo not drawn) [Compound 25]	6.31 nM	0.398 nM	8.10
CC(=Cc1ccc(F)cc1)CN1CCN(CC2ON=C3c4ccc(NCCN5CCOCC5)cc4OCC32)CC1 (stereo not drawn) [Compound 30]	50.1 nM	3.98 nM	8.00
COc1cc2c(cc1N(C)CCO)OCC1C2=NOC1CN1CCN(CC(C)=Cc2ccccc2)CC1 (stereo not drawn) [Compound 32]	3.98 nM	0.794 nM	7.70
CC(=Cc1cccc(F)c1)CN1CCN(CC2ON=C3c4ccc(N(C)CCO)cc4OCC32)CC1 (stereo not drawn) [Compound 35]	3.16 nM	1.26 nM	8.10
COc1cc2c(cc1N(C)CCO)OCC1C2=NOC1CN1CCN(CC(C)=Cc2cccc(F)c2)CC1 (stereo not drawn) [Compound 36]	20 nM	2.51 nM	7.60
COc1cc2c(cc1N(C)CCO)OCC1C2=NOC1CN1CCN(CC(C)=Cc2ccc(F)cc2)CC1 (stereo not drawn) [Compound 39]	50.1 nM	10 nM	7.10
CC(=Cc1ccccc1)CN1CCN(CC2ON=C3c4ccc(N(C)Cc5ccccc5)cc4OCC32)CC1 (stereo not drawn) [Compound 48]	39.8 nM	31.6 nM	6.80
COc1cc2c(cc1NC(C)=O)OCC1C2=NOC1CN1CCN(CC(C)=Cc2cccc(F)c2)CC1 (stereo not drawn) [Compound 49]	1.26 nM	0.251 nM	8.10
CC(=Cc1ccccc1)CN1CCN(CC2ON=C3c4ccc(NC(=O)C5CC5)cc4OCC32)CC1 (stereo not drawn) [Compound 51]	1.58 nM	1 nM	7.80

The remaining compounds from weak to strong by pIC50 (h5-HT transporter), led by results:

IC50 (hα2A receptor)	IC50 (hα2C receptor)	pIC50 (h5-HT transporter)	SMILES
2 nM	0.398 nM	7.20	CC(=Cc1ccccc1)CN1CCN(CC2ON=C3c4ccc(N(C)CCO)cc4OCC32)CC1 (single isomer, unassigned) [Compound 34]
3.16 nM	5.01 nM	7.20	CC(=Cc1ccc(F)cc1)CN1CCN(CC2ON=C3c4ccc(NCCO)cc4OCC32)CC1 (stereo not drawn) [Compound 37]
6.31 nM	1.26 nM	7.30	CCNc1ccc2c(c1)OCC1C2=NOC1CN1CCN(CC(C)=Cc2ccccc2)CC1 (stereo not drawn) [Compound 18]
2.51 nM	3.16 nM	7.30	CC(=Cc1ccccc1)CN1CCN(CC2ON=C3c4ccc(N(C)Cc5ccccc5)cc4OCC32)CC1 (stereo not drawn) [Compound 47]
15.8 nM	5.01 nM	7.50	C/C(=C\c1ccccc1)CN1CCN(CC2ON=C3c4cc5c(cc4OCC32)N(C)CCO5)CC1 (stereo not drawn) [Compound 14]
1.26 nM	1.26 nM	7.60	CC(=Cc1ccccc1)CN1CCN(CC2ON=C3c4ccc(N(C)CCO)cc4OCC32)CC1 (stereo not drawn) [Compound 31]
7.94 nM	2 nM	7.90	CNc1cc2c(cc1OC)C1=NOC(CN3CCN(CC(C)=Cc4cccc(F)c4)CC3)C1CO2 (stereo not drawn) [Compound 17]
79.4 nM	1.58 nM	7.90	CC(=Cc1ccc(F)cc1)CN1CCN(CC2ON=C3c4ccc(N(C)CCO)cc4OCC32)CC1 (stereo not drawn) [Compound 38]
12.6 nM	2.51 nM	8.00	CC(=Cc1ccc(F)cc1)CN1CCN(CC2ON=C3c4ccc(N(C)CCN)cc4OCC32)CC1 (stereo not drawn) [Compound 19]
15.8 nM	3.16 nM	8.30	COc1cc2c(cc1NCCN1CCCC1)OCC1C2=NOC1CN1CCN(CC(C)=Cc2cccc(F)c2)CC1 (stereo not drawn) [Compound 27]
2 nM	1.58 nM	8.50	COc1cc2c(cc1N(C)CCN(C)C)OCC1C2=NOC1CN1CCN(C/C(C)=C/c2ccccc2)CC1 (stereo not drawn) [Compound 11]
15.8 nM	1.58 nM	8.50	COc1cc2c(cc1NCCN1CCCC1)OCC1C2=NOC1CN1CCN(CC(C)=Cc2ccc(F)cc2)CC1 (stereo not drawn) [Compound 29]
